In ChEMBL document CHEMBL4261607 (Eur J Med Chem, 2018):

Assays:
[1] = Cytotoxicity against MDCK cells assessed as reduction in cell viability after 24 hrs by MTT assay; assay type: cell-based, Canis lupus familiaris; conditions: dog
[2] = Cytotoxicity in yeast assessed as reduction in cell proliferation; assay type: organism-based; conditions: saccharomyces cerevisiae, yeast cells
Influenza A virus = assay: Antiviral activity against Influenza A virus H5N1 infected in MDCK cells after 2 to 3 days by crystal violet staining-based plaque reduction assay; assay type: functional, organism-based
[3] = target: Matrix protein 2 (Influenza A virus (A/Udorn/307/1972(H3N2)), UniProt P0DOF8)
Sequence of Matrix protein 2 (Influenza A virus (A/Udorn/307/1972(H3N2)), UniProt P0DOF8) (P0DOF8 whole entry): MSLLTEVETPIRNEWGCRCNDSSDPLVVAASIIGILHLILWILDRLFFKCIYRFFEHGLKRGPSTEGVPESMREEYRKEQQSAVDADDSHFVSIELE

Structure (SMILES) | CC50 at 24 h [1] | CC50 [2] | EC50 (Influenza A virus) | EC50 [3]
N#CCCN(Cc1ccccc1)S(=O)(=O)c1ccc(F)cc1 | > 210 µM | > 210 µM | – | –
CCCN(Cc1cccs1)S(=O)(=O)c1ccc(Br)cc1 | > 178 µM | > 179 µM | – | –
N#CCCN(Cc1cccs1)S(=O)(=O)c1ccc([N+](=O)[O-])cc1 | > 190 µM | > 191 µM | – | –
N#CCCN(Cc1ccco1)S(=O)(=O)c1ccc(Cl)cc1 | > 205 µM | > 206 µM | – | –
Cc1cc(C(=O)NCCSCc2ccc([N+](=O)[O-])cc2)c(C)o1 | – | – | 1.25 µM | –
Cc1cccc(S(=O)(=O)N(CCC#N)Cc2ccco2)c1 | > 219 µM | > 220 µM | – | –
N#CCCN(Cc1cccs1)S(=O)(=O)c1ccc(C#N)cc1 | > 201 µM | > 202 µM | – | –
N#CCCN(Cc1cccs1)S(=O)(=O)c1ccc(C(F)(F)F)cc1 | > 178 µM | > 179 µM | – | –
Cc1ccc(S(=O)(=O)N(CCC#N)Cc2ccco2)cc1 | > 219 µM | > 220 µM | – | –
NC12CC3CC(CC(C3)C1)C2 [AMANTADINE] | > 441 µM | > 443 µM | – | –
N#CCCN(Cc1cccs1)S(=O)(=O)c1ccc(Cl)cc1 | > 196 µM | > 197 µM | – | –
N#CCCN(Cc1ccco1)S(=O)(=O)c1ccc(F)cc1 | 216 to 227 µM | 216 to 217 µM | – | –
N#CCCN(Cc1ccco1)S(=O)(=O)c1ccc(C(F)(F)F)cc1 | > 186 µM | > 187 µM | – | –
N#CCCN(Cc1cccs1)S(=O)(=O)c1ccc(N)cc1 | > 208 µM | > 179 µM | – | –
CCOC(=O)CCN(Cc1cccs1)S(=O)(=O)c1ccc(Br)cc1 | > 154 µM | > 155 µM | – | –
N#CCCN(Cc1cccs1)S(=O)(=O)c1cccc(F)c1 | > 206 µM | > 206 µM | – | –
N#CCCN(Cc1ccc[nH]1)S(=O)(=O)c1ccc(Br)cc1 | > 181 µM | > 182 µM | – | –
CCCN(CCC#N)S(=O)(=O)c1ccc(Br)cc1 | 116 µM | > 202 µM | – | –
COc1ccc(S(=O)(=O)N(CCC#N)Cc2ccco2)cc1 | > 208 µM | > 209 µM | – | –
N#CCCN(Cc1ccco1)S(=O)(=O)c1ccc(C#N)cc1 | > 212 µM | > 212 µM | – | –
COc1ccc(S(=O)(=O)N(CCC#N)Cc2cccs2)cc1 | > 198 µM | > 199 µM | – | –
N#CCCN(Cc1cccs1)S(=O)(=O)c1ccc(F)cc1 | > 206 µM | > 206 µM | – | –
O=S(=O)(c1ccc(Br)cc1)N(Cc1cccs1)Cc1cccs1 | 81 µM | > 156 µM | – | –
CC(=O)c1ccc(S(=O)(=O)N(CCC#N)Cc2cccs2)cc1 | > 191 µM | > 192 µM | – | –
Cc1ccc(S(=O)(=O)N(CCC#N)Cc2cccs2)cc1 | 127 µM | > 209 µM | – | –
N#CCCN(Cc1cccs1)S(=O)(=O)c1ccccc1F | > 206 µM | > 206 µM | – | –
CCOC(=O)C1=C[C@@H](OC(CC)CC)[C@H](NC(C)=O)[C@@H](N)C1 [OSELTAMIVIR] | – | > 214 µM | – | Not Active
N#CCCN(Cc1cccs1)S(=O)(=O)c1ccc(Br)cc1 | > 173 µM | > 174 µM | – | –
N#CCCN(Cc1ccco1)S(=O)(=O)c1ccc(Br)cc1 | > 181 µM | > 182 µM | – | –
O=C(O)CCN(Cc1cccs1)S(=O)(=O)c1ccc(Br)cc1 | > 165 µM | > 166 µM | – | –
